“Also recorded” adds a separate entry of the source. Where two headings read alike, the source gives them in different places.
Legend:
[1] = system: tail lymphedema; test: Indocyanine green lymphangiography of tail (intraperitoneal injection); type: in vivo, BALB/c mice; conditions: day 45; for ICG fluorescent intensity compared to control: 48 hours after injection
Description: On Day 45, animals were anesthetized using 2.5% isofluorane, and 5 μL of 2.5 mg/mL indocyanine green (ICG) was injected into the distal end of each animal's tail 15 minutes prior to imaging. The SPY Elite Fluorescence Imaging System (Novadaq Technologies, BC, Canada) was used to capture fluorescent images and heat maps of the tails at 0, 1, 2, 3, 6, 12, 24, and 48 hours following ICG injection. Capture conditions were kept constant throughout the trial. Fluorescent intensity of the tails at each time point was quantified using a previously described method for measuring cell fluorescence in ImageJ [4, 7]. Values were then recorded and plotted using GraphPad Prism 7. Percent change in fluorescent intensity from the peak fluorescent uptake at 6 hours was used to measure ICG clearance.

[2] = system: lymphatic endothelial cell; conditions: in vitro; earlier work [12,13]; cited from earlier work
[3] = system: lymphatic vessels of uninjured ears; test: Lymphatic analysis of uninjured ears, LYVE-1 whole mount; type: in vivo, BALB/c mice; conditions: 0.08 mg/kg daily i.p., any duration
Description: Bilateral ears of animals were harvested simultaneously with the diaphragm, removed of all hair using depilatory cream and fixed in 4% paraformaldehyde. The ears were then split between the inner and outer layers under a dissecting microscope and the cartilage removed prior to immunoflourescence staining. The whole mounted specimens were subsequently stained with anti-LYVE-1 and anti-CD-31 antibodies after washing with PBS, permeabilizing with 0.5% Triton X-100 (Sigma-Aldrich, USA), and incubated with the primary antibody (1:500) overnight. Green secondary antibodies (1:200 donkey anti-rabbit Alexa Fluor 488, Thermo Fisher Scientific, Canoga Park, CA) were used to stain for LYVE-1.
(§1) Slides were counterstained with hematoxylin and mounted. All images were obtained with a Keyence BZ-X700 microscope (Itasca, IL) and epidermal and dermal thickness was measured using ImageJ (National Institutes of Health, Betheseda, MD). The thickest part of the epidermis and dermis was measured in 5 high-power fields per section, as previously described. On the immunohistochemically stained slides, podoplanin stained vessels in the dermis and subcutis were quantified in ImageJ. Two high-power fields per section were randomly selected and then analyzed by a blinded reviewer. The reviewer scored the number of podoplanin stained vessels and the area (mm^2) of the dermis and subcutaneous tissue in each image. […]

[4] = system: tail lymphedema; test: Lymphatic vessel density, podoplanin immunohistochemistry of tail; type: in vivo, BALB/c mice; conditions: 0.08 mg/kg daily i.p.
Description: Tail specimens were collected on post-operative day 47. Specimens were harvested to include 1 cm proximal and 1 cm distal the wound, then divided to separate proximal and distal portions. Tails were inked to enable proper orientation, fixed in 10% neutral buffered formalin overnight, decalcified in 10% EDTA (pH: 7.3) for 6 days at 4° C., embedded in paraffin, sectioned at 3-5 μm, then stained with hematoxylin and eosin (H&E) or via immunohistochemical techniques. In summary, sections were deparaffinized, underwent antigen retrieval with sodium citrate buffer, incubated overnight with the primary antibody (1:200) at 4° C., washed, incubated with a suitable secondary antibody (1:200), then stained with immPACT DAB Substrate (Vector Laboratories, Inc, Burlingame, CA) and counterstained with Delafield Hematoxylin (Sigma-Aldrich, USA) diluted 1:4. Podoplanin (clone 8.1.1; sc-53533, Santa Cruz Biotechnology, Inc., Dallas, TX) was used to immunohistochemically mark lymphatics in paraffin embedded tail sections.
as §1

[5] = system: postsurgical lymphedema; conditions: daily intraperitoneal injections 0.08 mg/kg; earlier work [13]; cited from earlier work
[6] = mouse, in vivo, po
Description: (§2) Oral administration experiments were performed on 30 adult BALB/c mice, 12 to 14 weeks old, and weighing between 21 and 30 g. Surgical excision of lymphatic vessels at 20-mm from the base of the tail was performed in order to induce secondary lymphedema. Mice receive 9-cis RA dissolved in sunflower oil via oral gavage for 6 weeks in accordance to the dosing regimes in Table 3.

[7] = system: diaphragmatic lymphatics; test: India ink staining of the diaphragm; type: in vivo, BALB/c mice; conditions: 0.08 mg/kg daily i.p.
Description: On post-operative day 47, each animal was intraperitoneally injected with 5 cc of India Ink which was diluted 2-folds with distilled water. Ten minutes after the injection of India ink, the animal was euthanized and the diaphragms were harvested in their entirety. The specimens were then rinsed with running tap water for 1 minute and mounted on the stage of a dissecting microscope equipped with a digital camera. The whole-mount specimen, exclusive of the central tendon, was then analyzed for the passive lymphatic absorption of India ink utilizing the percent stained area on ImageJ.

[8] = system: tail lymphedema; test: Oral administration, tail lymphedema, gross tail volume; type: in vivo, BALB/c mice; conditions: oral gavage in sunflower oil for 6 weeks
Description: as §2

Structure (SMILES): CC1=C(/C=C/C(C)=C\C=C\C(C)=C\C(=O)O)C(C)(C)CCC1 [9-cis RA, 9-cis retinoic acid]
- percent change of ICG fluorescent intensity compared to control ([1]; 24 hours after ICG injection, all treatment groups): significant decrease in the percent change of fluorescent intensity compared to the control
- ICG fluorescent intensity compared to control ([1]; 7-day group): no longer significant from the control
- ICG fluorescent intensity compared to control ([1]; 14-day, 42-day and 7-day delayed groups): significant decrease in fluorescent intensity
- lymphatic endothelial cell proliferation, migration and vessel formation [2]: significantly increased
- number of branch points, blind-ended sacs, loops, total length, density of lymphatic vessels in uninjured ears vs vehicle control [3]: no significant difference
- lymphatic vessel density compared to control ([4]; 7-day delay group): strong trend towards improvement but not statistical significance
- lymphatic vessel density compared to control ([4]; 14-day group): trend towards increased lymphatic density that did not reach statistical significance; also recorded: trending towards significance
- lymphatic vessel density compared to control ([4]; 42-day/45-day group, tails distal to wound, day 47): significantly increased compared to the controls; also recorded: statistically significant difference
- prevention of postsurgical lymphedema [5]: significantly prevents development of lymphedema; also recorded: prevents postsurgical lymphedema
- systemic toxicity by liver and kidney function tests (AST, ALT, BUN) ([6]; 10 mg/kg): minimal systemic toxicity
- systemic toxicity by liver and kidney function tests (AST, ALT, BUN) ([6]; 30 mg/kg): minimal systemic toxicity
- percent stained area of diaphragms (India ink) vs vehicle control ([7]; 14-day group): marginal significance
- percent stained area of diaphragms (India ink) vs vehicle control ([7]; groups other than 14-day): essentially no differences
- change in gross tail volume ([8]; high dose 30 mg/kg): decreases change in gross tail volume
- change in gross tail volume ([8]; low dose 10 mg/kg, 10 mg/kg): decreases change in gross tail volume
- change in gross tail volume ([8]; low dose 10 mg/kg, listed as 9-cis retinoic acid, 10 mg/kg): most effective for preventing post-surgical tail lymphedema
